Assay results: patent publication US20230085307A1, “PYRIDAZINONE COMPOUND AND HERBICIDE” (NISSAN CHEMICAL CORPORATION, priority 2019, published 2023)

What was measured:
blackgrass [1] = experiment: Test Example 4: herbicidal effect by soil treatment (Table 19, symbol J); type: in vivo, blackgrass (Alopecurus myosuroides); conditions: amount of applied herbicide 320 g/ha
Summary of the method: (§1)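 Pre-emergence style soil spray: seeds under ~1.5 cm sterilized diluvial soil received a uniform coat of emulsion diluted to the predetermined herbicide amount. Greenhouse 25–30° C; readout at week three on previously defined criteria.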

Chinese sprangletop = experiment: Test Example 3: herbicidal effect by foliage application, Wagner pot (Table 18, symbol D); type: in vivo, chinese sprangletop (Leptochloa chinensis); conditions: amount of applied herbicide 320 g/ha
Summary of the method: (§2)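 Plants were sown in alluvial soil held under 0.1–0.5 cm standing water and grown 14 days in a greenhouse at 25–30 °C. An emulsifiable formulation, water-diluted to the set dose, was then sprayed onto the foliage, and effects were scored three weeks later using previously defined criteria.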

velvetleaf [2] = experiment: Test Example 5: herbicidal effect by foliage application, plastic box (Table 20, symbol M); type: in vivo, velvetleaf (Abutilon theophrasti); conditions: foliage application
Summary of the method: (§3)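 Plants were sown into sterilized diluvial soil under about 1.5 cm cover and kept in a greenhouse at 25° C. to 30° C. Fourteen days on, foliage received an even spray of the diluted emulsion. Herbicidal or crop effect was judged three weeks afterwards.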

lambsquarters [3] = experiment: Test Example 4: herbicidal effect by soil treatment (Table 19, symbol O); type: in vivo, lambsquarters (Chenopodium album); conditions: amount of applied herbicide 320 g/ha
Summary of the method: as §1

barnyard grass [4] = experiment: Test Example 5: herbicidal effect by foliage application, plastic box (Table 20, symbol H); type: in vivo, barnyard grass (Echinochloa crus-galli); conditions: foliage application
Summary of the method: as §3

Italian ryegrass [5] = experiment: Test Example 4: herbicidal effect by soil treatment (Table 19, symbol K); type: in vivo, Italian ryegrass (Lolium multiflorum); conditions: amount of applied herbicide 320 g/ha
Summary of the method: as §1

chickweed [6] = experiment: Test Example 4: herbicidal effect by soil treatment (Table 19, symbol P); type: in vivo, common chickweed (Stellaria media); conditions: amount of applied herbicide 320 g/ha
Summary of the method: as §1

green foxtail [7] = experiment: Test Example 4: herbicidal effect by soil treatment (Table 19, symbol G); type: in vivo, green foxtail (Setaria viridis); conditions: amount of applied herbicide 320 g/ha
Summary of the method: as §1

windgrass [8] = experiment: Test Example 5: herbicidal effect by foliage application, plastic box (Table 20, symbol L); type: in vivo, windgrass (Apera spica-venti); conditions: foliage application
Summary of the method: as §3

rice flat sedge = experiment: Test Example 3: herbicidal effect by foliage application, Wagner pot (Table 18, symbol E); type: in vivo, rice flat sedge (Cyperus iria); conditions: amount of applied herbicide 320 g/ha
Summary of the method: as §2

redroot pigweed [9] = experiment: Test Example 4: herbicidal effect by soil treatment (Table 19, symbol N); type: in vivo, redroot pigweed (Amaranthus retroflexus); conditions: amount of applied herbicide 320 g/ha
Summary of the method: as §1

blackgrass [10] = experiment: Test Example 5: herbicidal effect by foliage application, plastic box (Table 20, symbol J); type: in vivo, blackgrass (Alopecurus myosuroides); conditions: foliage application
Summary of the method: as §3

wild oat [11] = experiment: Test Example 5: herbicidal effect by foliage application, plastic box (Table 20, symbol I); type: in vivo, wild oat (Avena fatua); conditions: foliage application
Summary of the method: as §3

barnyard grass [12] = experiment: Test Example 3: herbicidal effect by foliage application, Wagner pot (Table 18, symbol H); type: in vivo, barnyard grass (Echinochloa crus-galli); conditions: amount of applied herbicide 320 g/ha
Summary of the method: as §2

velvetleaf [13] = experiment: Test Example 4: herbicidal effect by soil treatment (Table 19, symbol M); type: in vivo, velvetleaf (Abutilon theophrasti); conditions: amount of applied herbicide 320 g/ha
Summary of the method: as §1

persian speedwell [14] = experiment: Test Example 4: herbicidal effect by soil treatment (Table 19, symbol R); type: in vivo, Persian speedwell (Veronica persica); conditions: amount of applied herbicide 320 g/ha
Summary of the method: as §1

barnyard grass [15] = experiment: Test Example 4: herbicidal effect by soil treatment (Table 19, symbol H); type: in vivo, barnyard grass (Echinochloa crus-galli); conditions: amount of applied herbicide 320 g/ha
Summary of the method: as §1

persian speedwell [16] = experiment: Test Example 5: herbicidal effect by foliage application, plastic box (Table 20, symbol R); type: in vivo, Persian speedwell (Veronica persica); conditions: foliage application
Summary of the method: as §3

southern crabgrass [17] = experiment: Test Example 4: herbicidal effect by soil treatment (Table 19, symbol F); type: in vivo, southern crabgrass (Digitaria ciliaris); conditions: amount of applied herbicide 320 g/ha
Summary of the method: as §1

lambsquarters [18] = experiment: Test Example 5: herbicidal effect by foliage application, plastic box (Table 20, symbol O); type: in vivo, lambsquarters (Chenopodium album); conditions: foliage application
Summary of the method: as §3

southern crabgrass [19] = experiment: Test Example 5: herbicidal effect by foliage application, plastic box (Table 20, symbol F); type: in vivo, southern crabgrass (Digitaria ciliaris); conditions: foliage application
Summary of the method: as §3

windgrass [20] = experiment: Test Example 4: herbicidal effect by soil treatment (Table 19, symbol L); type: in vivo, windgrass (Apera spica-venti); conditions: amount of applied herbicide 320 g/ha
Summary of the method: as §1

green foxtail [21] = experiment: Test Example 5: herbicidal effect by foliage application, plastic box (Table 20, symbol G); type: in vivo, green foxtail (Setaria viridis); conditions: foliage application
Summary of the method: as §3

redroot pigweed [22] = experiment: Test Example 5: herbicidal effect by foliage application, plastic box (Table 20, symbol N); type: in vivo, redroot pigweed (Amaranthus retroflexus); conditions: foliage application
Summary of the method: as §3

Italian ryegrass [23] = experiment: Test Example 5: herbicidal effect by foliage application, plastic box (Table 20, symbol K); type: in vivo, Italian ryegrass (Lolium multiflorum); conditions: foliage application
Summary of the method: as §3

wild oat [24] = experiment: Test Example 4: herbicidal effect by soil treatment (Table 19, symbol I); type: in vivo, wild oat (Avena fatua); conditions: amount of applied herbicide 320 g/ha
Summary of the method: as §1

chickweed [25] = experiment: Test Example 5: herbicidal effect by foliage application, plastic box (Table 20, symbol P); type: in vivo, common chickweed (Stellaria media); conditions: foliage application
Summary of the method: as §3

[26] = AAH 320 g/ha, evaluated three weeks after application
[27] = 320 g/ha, three weeks after application

SMILES | herbicidal effect, J: blackgrass (blackgrass [1]) | herbicidal effect on D: Chinese sprangletop (Chinese sprangletop) | herbicidal effect, O: lambsquarters (lambsquarters [3]) | herbicidal effect, K: Italian ryegrass (Italian ryegrass [5]) | herbicidal effect, P: chickweed (chickweed [6]) | herbicidal effect, G: green foxtail (green foxtail [7]) | herbicidal effect on E: rice flat sedge (rice flat sedge) | herbicidal effect, N: redroot pigweed (redroot pigweed [9]) | herbicidal effect on H: barnyard grass (barnyard grass [12]) | herbicidal effect, M: velvetleaf (velvetleaf [13]) | herbicidal effect, R: persian speedwell (persian speedwell [14]) | herbicidal effect, H: barnyard grass (barnyard grass [15]) | herbicidal effect, F: southern crabgrass (southern crabgrass [17]) | herbicidal effect, L: windgrass (windgrass [20]) | herbicidal effect, I: wild oat (wild oat [24]) | other results
CCn1nc(C)c(O)c(-c2c(-c3ccc(C(F)(F)F)cc3)sc3ccc(F)cc23)c1=O [2-402] | 0 (Herbicidal rate of 5% or less (almost no effect)) | 3 (Herbicidal rate of 40% or more and less than 70%) | 1 (Herbicidal rate of 5% or more and less than 20%) | 2 (Herbicidal rate of 20% or more and less than 40%) | 4 (Herbicidal rate of 70% or more and less than 90%) | 0 (Herbicidal rate of 5% or less (almost no effect)) | 3 (Herbicidal rate of 40% or more and less than 70%) | 1 (Herbicidal rate of 5% or more and less than 20%) | 5 (Herbicidal rate of 90% or more (almost completely withered)) | 0 (Herbicidal rate of 5% or less (almost no effect)) | 5 (Herbicidal rate of 90% or more (almost completely withered)) | 0 (Herbicidal rate of 5% or less (almost no effect)) | 2 (Herbicidal rate of 20% or more and less than 40%) | 2 (Herbicidal rate of 20% or more and less than 40%) | 0 (Herbicidal rate of 5% or less (almost no effect)) | M: velvetleaf, herbicidal effect (criteria 0-5) (velvetleaf [2]; [26]): 4 (Herbicidal rate of 70% or more and less than 90%); H: barnyard grass, herbicidal effect (criteria 0-5) (barnyard grass [4]; [26]): 5 (Herbicidal rate of 90% or more (almost completely withered)); L: windgrass, herbicidal effect (criteria 0-5) (windgrass [8]; [26]): 5 (Herbicidal rate of 90% or more (almost completely withered)); J: blackgrass, herbicidal effect (criteria 0-5) (blackgrass [10]; [26]): 5 (Herbicidal rate of 90% or more (almost completely withered)); I: wild oat, herbicidal effect (criteria 0-5) (wild oat [11]; [26]): 4 (Herbicidal rate of 70% or more and less than 90%); R: persian speedwell, herbicidal effect (criteria 0-5) (persian speedwell [16]; [26]): 5 (Herbicidal rate of 90% or more (almost completely withered)); O: lambsquarters, herbicidal effect (criteria 0-5) (lambsquarters [18]; [26]): 4 (Herbicidal rate of 70% or more and less than 90%); F: southern crabgrass, herbicidal effect (criteria 0-5) (southern crabgrass [19]; [26]): 4 (Herbicidal rate of 70% or more and less than 90%); G: green foxtail, herbicidal effect (criteria 0-5) (green foxtail [21]; [26]): 3 (Herbicidal rate of 40% or more and less than 70%); N: redroot pigweed, herbicidal effect (criteria 0-5) (redroot pigweed [22]; [26]): 4 (Herbicidal rate of 70% or more and less than 90%); K: Italian ryegrass, herbicidal effect (criteria 0-5) (Italian ryegrass [23]; [26]): 5 (Herbicidal rate of 90% or more (almost completely withered)); P: chickweed, herbicidal effect (criteria 0-5) (chickweed [25]; [26]): 5 (Herbicidal rate of 90% or more (almost completely withered))
CCc1nn(C)c(=O)c(-c2c(-c3ccc(OC(F)(F)F)cc3)sc3ccc(F)cc23)c1O [2-412] | 0 (Herbicidal rate of 5% or less (almost no effect)) | 0 (Herbicidal rate of 5% or less (almost no effect)) | 1 (Herbicidal rate of 5% or more and less than 20%) | 0 (Herbicidal rate of 5% or less (almost no effect)) | 0 (Herbicidal rate of 5% or less (almost no effect)) | 0 (Herbicidal rate of 5% or less (almost no effect)) | 4 (Herbicidal rate of 70% or more and less than 90%) | 2 (Herbicidal rate of 20% or more and less than 40%) | 4 (Herbicidal rate of 70% or more and less than 90%) | 0 (Herbicidal rate of 5% or less (almost no effect)) | 3 (Herbicidal rate of 40% or more and less than 70%) | 0 (Herbicidal rate of 5% or less (almost no effect)) | 0 (Herbicidal rate of 5% or less (almost no effect)) | 0 (Herbicidal rate of 5% or less (almost no effect)) | 0 (Herbicidal rate of 5% or less (almost no effect)) | M: velvetleaf, herbicidal effect grade (velvetleaf [2]; [27]): 3 (Herbicidal rate of 40% or more and less than 70%); H: barnyard grass, herbicidal effect grade (barnyard grass [4]; [27]): 4 (Herbicidal rate of 70% or more and less than 90%); L: windgrass, herbicidal effect grade (windgrass [8]; [27]): 1 (Herbicidal rate of 5% or more and less than 20%); J: blackgrass, herbicidal effect grade (blackgrass [10]; [27]): 0 (Herbicidal rate of 5% or less (almost no effect)); I: wild oat, herbicidal effect grade (wild oat [11]; [27]): 0 (Herbicidal rate of 5% or less (almost no effect)); R: persian speedwell, herbicidal effect grade (persian speedwell [16]; [27]): 5 (Herbicidal rate of 90% or more (almost completely withered)); O: lambsquarters, herbicidal effect grade (lambsquarters [18]; [27]): 5 (Herbicidal rate of 90% or more (almost completely withered)); F: southern crabgrass, herbicidal effect grade (southern crabgrass [19]; [27]): 3 (Herbicidal rate of 40% or more and less than 70%); G: green foxtail, herbicidal effect grade (green foxtail [21]; [27]): 4 (Herbicidal rate of 70% or more and less than 90%); N: redroot pigweed, herbicidal effect grade (redroot pigweed [22]; [27]): 5 (Herbicidal rate of 90% or more (almost completely withered)); K: Italian ryegrass, herbicidal effect grade (Italian ryegrass [23]; [27]): 3 (Herbicidal rate of 40% or more and less than 70%); P: chickweed, herbicidal effect grade (chickweed [25]; [27]): 5 (Herbicidal rate of 90% or more (almost completely withered))
